Like-named read-outs stand apart in the source and are kept apart here.

The subject of one data set is tumors. Put plainly: antitumor activity (statement in words). In kind it is in vivo. How it is done:
(§1) The esters of the invention have shown effect in inhibiting the growth of several tumors, e.g., Ehrlich ascites, Hepatoma AH 130, lymphocytic leukemia (L1210), Walker 256 and Harding-Passey Melanoma according to the procedure of Cancer Chemotherapy National Service Center (Ref.: Cancer Chemotherapy Reports, December 1962).
The esters of this invention were tested for effectiveness in inhibiting the growth of Ehrlich ascites, Hepatoma 130, lymphocytic leukemia (L 1210), and Harding-Passey Melanoma, and Walker 256 tumors. The administration was by the intraperitoneal route in each case.

In data set [1] the test system is Ehrlich ascites tumor. The settings on record: in vivo, ip; for Lethality: 1000 mg/kg.
The subject of data set [2] is Hepatoma 130 tumor. Particulars: in vivo, ip.
The test system of data set [3] is Harding-Passey Melanoma tumor.
Data set [4] relates to Walker 256 tumor. Particulars: in vivo.
Data set [5] in a line: Hepatoma 130 tumor growth inhibition and lethality, oral (Table 5). In kind it is in vivo. Particulars: in vivo, 1 × dose.
Text: as §1

The next data set concerns Hepatoma 130. The description is as above. In kind it is in vivo. Particulars: 1 × dose.
Text: as §1

Data set [6] is described as follows: Harding-Passey Melanoma growth inhibition and lethality, oral (Table 5). The settings on record: in vivo, 11 × dose. In kind it is in vivo.
Text: as §1

Another data set deals with Harding-Passey Melanoma. The data set is described as above. In kind it is in vivo. Particulars: 11 × dose.
Text: as §1

Data set [7] is described as follows: Walker 256 tumor growth inhibition and lethality, oral (Table 5). In kind it is in vivo. Particulars: in vivo.
Text: as §1

A further data set has as its system Walker 256. Described as above. In kind it is in vivo.
Text: as §1

In data set [8] the test system is Hepatoma 130 tumor. Put plainly: animal or person. Particulars: ip, read-out: ED50 (Effect).
Data set [9] deals with Harding-Passey Melanoma tumor. Put plainly: animal or person. Particulars: ip, read-out: ED50 (Effect).
Data set [10] has as its system Walker 256 tumor. Put plainly: animal or person. Particulars: Walker 256, ip, read-out: ED50 (Effect).
Data set [11] in a line: in vivo. The settings on record: ip.
The test system of data set [12] is Ehrlich ascites tumor. Put plainly: animal or person. The settings on record: ip, read-out: ED50 (Effect).
Data set [13] in a line: in vivo. The settings on record: ip. The source holds these as a separate data set.

As to `C[C@]12CCC(=O)C=C1CC[C@@H]1[C@@H]2[C@@H](O)C[C@@]2(C)[C@H]1CC[C@]2(O)C(=O)COC(=O)C(N)Cc1ccc(N(CCCl)CCCl)cc1` (stereo partly drawn) [hydrocortisone-21-3'-{p-[N-bis-(β-chloroethyl)-amino]-phenyl}-2'-aminopropionate], the antitumor activity result with tumors is reported as “desired antitumor activity”.
On the same count and under the same terms, the result for `Cc1ccc(C(=O)OCC(=O)[C@@]2(O)CC[C@H]3[C@@H]4CCC5=CC(=O)C=C[C@]5(C)[C@H]4[C@@H](O)C[C@@]32C)cc1N(CCCl)CCCl` [prednisolone-21-3'-[N-bis-(β-chloroethyl)-amino]-4'-methyl-benzoate] reads “having the desired antitumor activity”.
On to `C[C@]12CCC(=O)C=C1CC[C@@H]1[C@@H]2[C@@H](O)C[C@@]2(C)[C@H]1CC[C@]2(O)C(=O)COC(=O)c1ccc(N(CCCl)CCCl)cc1` [hydrocortisone-21-p-/N-bis(β -chloroethyl)-amino/-benzoate], for which the “ED50 (Effect)” value was found to be 15 mg/kg in the data set with Ehrlich ascites tumor [1]; 28 mg/kg in the data set on Hepatoma 130 tumor [2]; 19 mg/kg in data set [3] (intraperitoneal, 11 × dose).
In the case of `CC(=O)NC(Cc1ccc(N(CCCl)CCCl)cc1)C(=O)OCC(=O)[C@@]1(O)CC[C@H]2[C@@H]3CCC4=CC(=O)CC[C@]4(C)[C@H]3[C@@H](O)C[C@@]21C` (stereo partly drawn) [hydrocortisone-21-3'-{p-[N-bis-(β-chloroethyl)-amino]-phenyl}-2'-acetamido-propionate], the “antitumor activity against Walker 256 tumors” value with Walker 256 tumor [4] is given as “same activity”.
For `C[C@]12C=CC(=O)C=C1CC[C@@H]1[C@@H]2[C@@H](O)C[C@@]2(C)[C@H]1CC[C@]2(O)C(=O)COC(=O)c1ccc(N(CCCl)CCCl)cc1` [prednisolone-21-p-/N-bis(β-chloroethyl)-amino/-benzoate], the antitumor activity result in the data set on tumors is on record as “desired antitumor activity”. The “ED50 (Effect)” value in the data set on Ehrlich ascites tumor [1] is 13 mg/kg; with Hepatoma 130 tumor [2] it was 5.6 mg/kg; in data set [3] (intraperitoneal, 11 × dose) it was 3.4 mg/kg; in the data set with Walker 256 tumor [4] (ip), 9.6 mg/kg. Also, the Lethality entry in the data set with Ehrlich ascites tumor [1] is recorded as “no toxicity”.
Broadly, the LD50 is the dose expected to kill half of the subjects tested. The low end stands for greater toxicity, the high end for lower toxicity. In general, ED50 refers to the dose at which the effect has come halfway, by size or by number of responders. Turning to `C[C@]12C=CC(=O)C=C1CC[C@@H]1[C@@H]2[C@@H](O)C[C@@]2(C)[C@H]1CC[C@]2(O)C(=O)COC(=O)CCCc1ccc(N(CCCl)CCCl)cc1` [prednisolone-21-4'-[p-/N-bis(β-chloroethyl)-amino/-phenyl]-butyrate], the LD50 worked out at 380 mg/kg in [5], 40 mg/kg in data set [6] and 64 mg/kg in [7]. Besides, the T.I. with Hepatoma 130 is given as 2.5; with Harding-Passey Melanoma, 6.7; in the data set with Walker 256, 64; with Hepatoma 130 tumor [2] it was 45; in [3] (intraperitoneal, 11 × dose) it was 2.2; with Walker 256 tumor [4] (ip), 29. Also, the ED50 in the data set with Hepatoma 130 (read-out: ED50 (Effect)) came out at 155 mg/kg; in the data set with Harding-Passey Melanoma (read-out: ED50 (Effect)), 6 mg/kg; with Walker 256 (Walker 256, read-out: ED50 (Effect)) it was 1 mg/kg; with Hepatoma 130 tumor [8], 5.8 mg/kg; in data set [9], 3.1 mg/kg; in the data set on Walker 256 tumor [10], 1.1 mg/kg.
For `C[C@]12CCC(=O)C=C1CC[C@@H]1[C@@H]2[C@@H](O)C[C@@]2(C)[C@H]1CC[C@]2(O)C(=O)COC(=O)CCCc1ccc(N(CCCl)CCCl)cc1` [hydrocortisone-21-4'-{p-[N-bis-(β-chloroethyl)-amino]-phenyl}-butyrate], the antitumor activity result in the data set on tumors is “desired antitumor activity”.
On to `O=C(O)CCCc1ccc(N(CCCl)CCCl)cc1` [Chlorambucil, reference compound], for which the LD50 in data set [5] was 55 mg/kg; in data set [6] it was 7 mg/kg; in data set [7] it was 13.5 mg/kg; in the data set “in vivo [11]”, 30 mg/kg. For the same compound, the “ED50 (Effect)” value with Hepatoma 130 is listed as > 31 mg/kg; in the data set on Harding-Passey Melanoma, 2.3 mg/kg; in the data set with Walker 256, 0.42 mg/kg; in the data set with Hepatoma 130 tumor [2] it was 4.3 mg/kg.
In the case of `C[C@]12C=CC(=O)C=C1CC[C@@H]1[C@@H]2[C@@H](O)C[C@@]2(C)[C@H]1CC[C@]2(O)C(=O)CO` [Prednisolone, pregna-1,4-dien-11β,17α ,21-triol-3,20-dion, reference compound], the T.I. in the data set on Ehrlich ascites tumor [1] is given as > 8.3; with Hepatoma 130 tumor [2], 6.6; in data set [3] (in vivo, ip), < 2.5; in the data set on Walker 256 tumor [4] (ip) it was 3.0. In addition, the Lethality result with Ehrlich ascites tumor [1] was “no toxicity”. Also, in data set [3] (in vivo, ip, 243 mg/kg), the Effect result is given as “no effect”. Also, the figures for the ED50 in the data set with Ehrlich ascites tumor [12], with Hepatoma 130 tumor [8] and with Walker 256 tumor [10] were 120 mg/kg, 118 mg/kg and 214 mg/kg, respectively.
On to `Cc1ccc(C(=O)OCC(=O)[C@@]2(O)CC[C@H]3[C@@H]4CCC5=CC(=O)CC[C@]5(C)[C@H]4[C@@H](O)C[C@@]32C)cc1N(CCCl)CCCl` [hydrocortisone-21-3'-[N-bis-(β-chloroethyl)-amino]-4'-methylbenzoate], for which the antitumor activity result with tumors is recorded as “desired antitumor activity”.
Regarding `CC(=O)NC(Cc1ccc(N(CCCl)CCCl)cc1)C(=O)OCC(=O)[C@@]1(O)CC[C@H]2[C@@H]3CCC4=CC(=O)C=C[C@]4(C)[C@H]3[C@@H](O)C[C@@]21C` (stereo partly drawn) [prednisolone-21-3'-{p-[N-bis-(β-chloroethyl)-amino]-phenyl}-2'-acetamido-propionate], the “antitumor activity against Walker 256 tumors” value in the data set with Walker 256 tumor [4] is given as “active antitumor agent”.
For `C[C@]12C=CC(=O)C=C1CC[C@@H]1[C@@H]2[C@@H](O)C[C@@]2(C)[C@H]1CC[C@]2(O)C(=O)COC(=O)C(N)Cc1ccc(N(CCCl)CCCl)cc1` (stereo partly drawn) [prednisolone-21-3'-{p-[N-bis-(β-chloroethyl)-amino]-phenyl}-2'-aminopropionate], the antitumor activity entry in the data set on tumors is “desired antitumor activity”.
Consider `C[C@]12C=CC(=O)C=C1CC[C@@H]1[C@@H]2[C@@H](O)C[C@@]2(C)[C@H]1CC[C@]2(O)C(=O)COC(=O)Cc1ccc(N(CCCl)CCCl)cc1` [prednisolone-21-p-/N-bis(β-chloroethyl)-amino/-phenylacetate], for which the “ED50 (Effect)” value in the data set on Hepatoma 130 tumor [2] is 27 mg/kg. Also, the LD50 in the data set “in vivo [11]” worked out at 560 mg/kg.
`C[C@]12C=CC(=O)C=C1CC[C@@H]1[C@@H]2C(=O)C[C@@]2(C)[C@H]1CC[C@]2(O)C(=O)COC(=O)c1ccc(N(CCCl)CCCl)cc1` [prednisone-21-p-/N-bis(β-chloroethyl)-amino/-benzoate]: the “ED50 (Effect)” value was 12 mg/kg in the data set on Ehrlich ascites tumor [1]; 58 mg/kg in the data set with Hepatoma 130 tumor [2]; 18 mg/kg in data set [3] (intraperitoneal, 11 × dose). Further, the Lethality result in the data set with Ehrlich ascites tumor [1] and in the data set with Hepatoma 130 tumor [2] (1000 mg/kg) was “no toxicity” each time. The same compound gave an LD50 in the data set “in vivo [13]” of 97 mg/kg.
